Results published in patent US20090298843A1, “TREATMENT OF HEMATOLOGICAL MALIGNANCIES WITH FTS AND A BCR-ABL TYROSINE KINASE INHIBITOR” (RAMOT AT TEL AVIV UNIVERSITY LTD., priority 2006, published 2009).
One block for each compound: values may come before it.

What was measured:
[1] = test system: 697 cells (Human T-cell leukemia, ALL); assay: Cell growth inhibition assay, FTS alone (direct cell count); assay type: cell-based; conditions: for cell number in FTS-treated cells as a percentage of controls (avg): counted 48 h after addition
From the text: (§1) The following cell lines were examined, representing Acute Myeloid Leukemia (AML), Acute Lymphoblastic Leukemia (ALL), and Chronic Myeloid Leukemia (CML): 1. CEM (Human T-cell leukemia, ALL) 2. HSB-2 (Human T-cell leukemia, ALL) carrying the t(1; 7) (p34; q34) involving the lck and tcrb genes and a submicroscopic del(1)(p32) leading to the Sil-Scl fusion gene 3. 697 (Human T-cell leukemia, ALL) 4. Raji (Human Burkitt's lymphoma) with overexpression and mutation in the c-Myc gene 5. U-937 (Human histiocytic lymphoma, AML) 6. HL-60 (AML) 7. K562 (Himan, CML) with a b3-a2 fusion gene to create the Bcr-Abl chimeric oncoprotein.
(§2) Cells were grown at 37° C. in RPMI containing 5% FCS, 100 μg/mL streptomycin, and 100 units/mL penicillin and maintained in a humidified atmosphere of 95% air/5% CO2. […] Each experiment tin quadruplicate) was performed at least two times.

[2] = test system: CEM cells (Human T-cell leukemia, ALL); assay: as above; assay type: cell-based; conditions: for cell number in FTS-treated cells as a percentage of controls (avg): CEM, counted 48 h after addition
From the text: as §1, §2

[3] = test system: HSB-2 cells (Human T-cell leukemia, ALL); assay: as above; assay type: cell-based; conditions: for cell number in FTS-treated cells as a percentage of controls (avg): HSB, counted 48 h after addition
From the text: as §1, §2

K562 cells (Human, CML) [4] = assay: as above; assay type: cell-based; conditions: for cell number in FTS-treated cells as a percentage of controls (avg): counted 48 h after addition
From the text: as §1, §2

[5] = test system: Raji cells (Human Burkitt's lymphoma); assay: as above; assay type: cell-based; conditions: for cell number in FTS-treated cells as a percentage of controls (avg): counted 48 h after addition
From the text: as §1, §2

[6] = test system: U-937 cells (Human histiocytic lymphoma, AML); assay: as above; assay type: cell-based; conditions: U937; for cell number in FTS-treated cells as a percentage of controls (avg): counted 48 h after addition
From the text: as §1, §2

HL-60 cells (AML) = assay: as above; assay type: cell-based, Human; conditions: for cell number in FTS-treated cells as a percentage of controls (avg): counted 48 h after addition
From the text: as §1, §2

K562 cells (Human, CML) [7] = assay: FACS analysis of propidium iodide stained cells (cell cycle distribution, sub-G1); assay type: cell-based; conditions: for cells in sub-G1: 48 h
Description: Third, a FACS analysis was performed. Cells were plated at a density of 50,000 cells per ml in 10 cm plates for fluorescence-activated cell-sorting (FACS) analysis of propidium iodide stained cells. […] Forty-eight hours (48 h) later, propidium iodide mixed with 1% Triton X-100 was added to the cells, and the cell cycle distribution of the cells was assessed using a FACS machine.
[Gambacorti-Passerini, C., le Coutre, P., Mologni, L., Fanelli, M., Bertazzoli, C., Marchesi, E., Di Nicola, M., Biondi, A., Corneo, G. M., Belotti, D., Pogliani, E., Lydon, N. B., Blood Cells Mol Dis. 23(3):380-94 (1997)].

[8] = Phase-I open-label study of FTS in human patients with advanced hematologic malignancies; assay type: in vivo; conditions: for ANC, baseline level / HGB, baseline level / PLT, baseline level: before treatment
Description: One human patient with advanced myelodysplastic syndrome (MDS) refractory to chemotherapy was treated with FTS, at a dose of 200 b.i.d. (400 mg daily), administered on days 1 to 21 of a 28 day cycle. […] The results are graphically depicted in FIG. 7 and in Table 3 (below). Five human patients with advanced myelodysplastic syndrome (MDS), acute myelogenous leukemia (AML), or chronic myelogenous leukemia (CML) refractory to chemotherapy were treated with FTS at doses of 200 to 600 mg b.i.d. (400 to 1200 mg daily) administered on days 1 to 21 of a 28 day cycle. […]

[9] = test system: seven leukemia cell lines (CEM, HSB-2, 697, Raji, U-937, HL-60, K562); assay: Cell growth inhibition assay, FTS alone, summary over the seven cell lines; assay type: cell-based, Human
From the text: as §1, §2

[10] = Homo sapiens, read-out: IC50 for FTS inhibition of leukemia cell growth
[11] = person one, AML, FTS 400 mg b.i.d.
[12] = person two, AML, FTS 400 mg b.i.d.
[13] = person, MDS, FTS 200 b.i.d., days 1 to 21 of a 28 day cycle

IC50 ([1]; Homo sapiens, T-cell): 25 µM | IC50 ([2]; Homo sapiens, CCRF-CEM): 50 µM | IC50 ([3]; Homo sapiens, HSB2): 25 µM | IC50 (K562 cells (Human, CML) [4]; [10]): 50 µM | IC50 [5, 10]: 20 µM | IC50 ([6]; Homo sapiens, U-937, read-out: IC50 for FTS inhibition of leukemia cell growth): 70 µM | IC50 (HL-60 cells (AML); [10]): 60 µM | IC50 ([9]; Homo sapiens, seven leukemia cell lines, read-out: half maximal inhibitory concentration (IC50) values, range over the cell lines): 20 to 70 µM
SMILES: CC(C)=CCC/C(C)=C/CC/C(C)=C/CSc1ccccc1C(=O)O [FTS, farnesylthiosalicylic acid]
cell number in FTS-treated cells as a percentage of controls (avg) ([1]; FTS 12.5 uM): 27% | cell number in FTS-treated cells as a percentage of controls (avg) ([1]; FTS 25 uM): 44% | cell number in FTS-treated cells as a percentage of controls (avg) ([1]; FTS 50 uM): 34% | cell number in FTS-treated cells as a percentage of controls (avg) ([1]; FTS 75 uM): 4% | cell number in FTS-treated cells as a percentage of controls (avg) ([1]; FTS 100 uM): 2% | cell number in FTS-treated cells as a percentage of controls (avg) ([2]; FTS 12.5 uM): 89% | cell number in FTS-treated cells as a percentage of controls (avg) ([2]; FTS 25 uM): 78% | cell number in FTS-treated cells as a percentage of controls (avg) ([2]; FTS 50 uM): 71% | cell number in FTS-treated cells as a percentage of controls (avg) ([2]; FTS 75 uM): 32% | cell number in FTS-treated cells as a percentage of controls (avg) ([2]; FTS 100 uM): 12% | cell number in FTS-treated cells as a percentage of controls (avg) ([3]; FTS 12.5 uM): 88% | cell number in FTS-treated cells as a percentage of controls (avg) ([3]; FTS 25 uM): 53% | cell number in FTS-treated cells as a percentage of controls (avg) ([3]; FTS 50 uM): 38% | cell number in FTS-treated cells as a percentage of controls (avg) ([3]; FTS 75 uM): 22% | cell number in FTS-treated cells as a percentage of controls (avg) ([3]; FTS 100 uM): 4% | cell number in FTS-treated cells as a percentage of controls (avg) (K562 cells (Human, CML) [4]; FTS 6.25 uM): 100% | cell number in FTS-treated cells as a percentage of controls (avg) (K562 cells (Human, CML) [4]; FTS 12.5 uM): 115% | cell number in FTS-treated cells as a percentage of controls (avg) (K562 cells (Human, CML) [4]; FTS 25 uM): 107% | cell number in FTS-treated cells as a percentage of controls (avg) (K562 cells (Human, CML) [4]; FTS 50 uM): 37% | cell number in FTS-treated cells as a percentage of controls (avg) (K562 cells (Human, CML) [4]; FTS 75 uM): 14% | cell number in FTS-treated cells as a percentage of controls (avg) (K562 cells (Human, CML) [4]; FTS 100 uM): 1% | cell number in FTS-treated cells as a percentage of controls (avg) ([5]; FTS 6.25 uM): 63% | cell number in FTS-treated cells as a percentage of controls (avg) ([5]; FTS 12.5 uM): 61% | cell number in FTS-treated cells as a percentage of controls (avg) ([5]; FTS 25 uM): 33% | cell number in FTS-treated cells as a percentage of controls (avg) ([5]; FTS 50 uM): 24% | cell number in FTS-treated cells as a percentage of controls (avg) ([5]; FTS 75 uM): 11% | cell number in FTS-treated cells as a percentage of controls (avg) ([5]; FTS 100 uM): 5% | cell number in FTS-treated cells as a percentage of controls (avg) ([6]; FTS 12.5 uM): 104% | cell number in FTS-treated cells as a percentage of controls (avg) ([6]; FTS 25 uM): 82% | cell number in FTS-treated cells as a percentage of controls (avg) ([6]; FTS 50 uM): 82% | cell number in FTS-treated cells as a percentage of controls (avg) ([6]; FTS 75 uM): 32% | cell number in FTS-treated cells as a percentage of controls (avg) ([6]; FTS 100 uM): 9% | cell number in FTS-treated cells as a percentage of controls (avg) (HL-60 cells (AML); FTS 6.25 uM): 76% | cell number in FTS-treated cells as a percentage of controls (avg) (HL-60 cells (AML); FTS 12.5 uM): 69% | cell number in FTS-treated cells as a percentage of controls (avg) (HL-60 cells (AML); FTS 25 uM): 82% | cell number in FTS-treated cells as a percentage of controls (avg) (HL-60 cells (AML); FTS 50 uM): 67% | cell number in FTS-treated cells as a percentage of controls (avg) (HL-60 cells (AML); FTS 75 uM): 31% | sensitization of K562 cells to GLEEVEC (K562 cells (Human, CML) [7]; FTS 70 μM with GLEEVEC 200 nM): chemosensitized the K562 cells to GLEEVEC | cells in sub-G1 (K562 cells (Human, CML) [7]; FTS only, 70 μM): 8% | lineage response (PLT, HGB or ANC) over the course of treatment ([8]; five patients, advanced MDS, AML or CML refractory to chemotherapy, 200 to 600 mg b.i.d., days 1 to 21 of a 28 day cycle): improvement in one lineage | lineage response (PLT, HGB, ANC) over the course of treatment ([8]; one patient, advanced MDS refractory to chemotherapy, 200 b.i.d. (400 mg daily), days 1 to 21 of a 28 day cycle): improvement in three lineages | ANC, best level observed [8, 11]: 4.503e+09 L⁻¹ | ANC, baseline level [8, 11]: 0.285 to × 10^9/L | ANC, best level observed [8, 12]: 9.54e+08 L⁻¹ | ANC, baseline level [8, 12]: 0.144 to × 10^9/L | HGB, best level observed ([8]; person, CML, FTS 600 mg b.i.d.): 11.4 g/dL | HGB, baseline level ([8]; person, CML, FTS 600 mg b.i.d.): 9.3 to g/dL | PLT, best level observed ([8]; person, MDS, FTS 200 mg b.i.d.): 5.4e+10 L⁻¹ | PLT, baseline level ([8]; person, MDS, FTS 200 mg b.i.d.): 21 to × 10^9/L | HGB, best level observed ([8]; person, MDS, FTS 400 mg b.i.d.): 10.4 g/dL | HGB, baseline level ([8]; person, MDS, FTS 400 mg b.i.d.): 9.7 to g/dL | ANC, best level observed [8, 13]: 9.7e+08 L⁻¹ | HGB, best level observed [8, 13]: 12.7 g/dL | PLT, best level observed [8, 13]: 1.05e+11 L⁻¹ | ANC, baseline level [8, 13]: 0.40 to × 10^9/L | HGB, baseline level [8, 13]: 10.4 to g/dL | PLT, baseline level [8, 13]: 53 to × 10^9/L | growth inhibition, result in words ([9]; seven cell lines): inhibited growth of each of seven cell lines

SMILES: Cc1ccc(NC(=O)c2ccc(CN3CCN(C)CC3)cc2)cc1Nc1nccc(-c2cccnc2)n1 [GLEEVEC, reference compound]
cells in sub-G1 (K562 cells (Human, CML) [7]; GLEEVEC only, 200 nM): 13%
